PMC7732027 (Bioorganic & medicinal chemistry letters, 2019)

System: influenza A virus PR8-GLuc (H1N1) strain
Assay type: cell-based

Cl.O=C(O)[C@H]1C2CCC(C3CC32)[C@@H]1Nc1nc(-c2c[nH]c3ncc(F)cc23)ncc1F (some centres unmarked) [13b]
decrease of potency versus Pimodivir: 12 times

Cl.O=C(O)C12CC3CC(CC(Nc4nc(-c5c[nH]c6ncc(F)cc56)ncc4F)(C3)C1)C2 [13d]
decrease of potency versus Pimodivir: 230 times
